14 compounds from PubChem BioAssay (NCI) can be followed below.

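Method: 48-hour compound exposure of cells in 96-well plates, five concentrations, linear interpolation of endpoints. Abbreviation: GI50, concentration required for 50% inhibition of growth. The concentration for full growth arrest is given as TGI.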

Some test systems named below: A549 NSCLC; NCI-H460 lung; U251 CNS; CAKI-1 renal; A498 renal; COLO 205 colon; NCI-H522 lung; OVCAR-8 ovarian; RXF 393 renal; UACC-257 melanoma.
Common to all, as to assay: DTP human tumour cell line panel, 48 h

For `COc1ccc(CN2c3ccccc3Sc3ccccc32)cc1F`, the GI50 in the assay on A549 NSCLC is 0.675 µM; with NCI-H460 lung it was 379 nM; in the assay with U251 CNS, 0.561 µM; in the assay on CAKI-1 renal, 0.399 µM; in the assay on A498 renal, 283 nM; in the assay on COLO 205 colon it was 0.31 µM. The figures for the GI50 in the assay with NCI-H522 lung and in the assay on OVCAR-8 ovarian were 0.266 µM and 0.712 µM, respectively. The TGI in the assay with A549 NSCLC is > 100 µM; in the assay with NCI-H460 lung, > 100 µM; in the assay on U251 CNS it was > 100 µM; in the assay with CAKI-1 renal it was > 100 µM; with A498 renal, 0.927 µM; in the assay on COLO 205 colon it was 1.36 µM. Further, the TGI in the assay on NCI-H522 lung was 0.804 µM; with OVCAR-8 ovarian, > 100 µM.
Consider `CC(C)c1cc(C(C)C)c(S(=O)(=O)NN)c(C(C)C)c1`, for which the TGI with A549 NSCLC, in the assay with NCI-H460 lung, in the assay on U251 CNS, in the assay on CAKI-1 renal, in the assay with A498 renal and with COLO 205 colon was > 100 µM in each case. Moreover, the TGI in the assay on RXF 393 renal, in the assay on UACC-257 melanoma and with OVCAR-8 ovarian was > 100 µM throughout.
On to `COc1ccc(Nc2c3ccccc3nc3c2c2ccccc2n3C)cc1`, for which the GI50 in the assay on A549 NSCLC is 17.8 µM; with NCI-H460 lung it was 5200 nM; with U251 CNS it was 36.5 µM; in the assay on CAKI-1 renal, 30.7 µM; in the assay with COLO 205 colon, 15.2 µM; in the assay with RXF 393 renal, 64.9 µM. Further, the GI50 is 37.5 µM in the assay with UACC-257 melanoma, 78.3 µM with NCI-H522 lung and 57.5 µM in the assay with OVCAR-8 ovarian. Besides, the TGI in the assay on A549 NSCLC, in the assay with NCI-H460 lung, in the assay with U251 CNS, in the assay on CAKI-1 renal, in the assay with COLO 205 colon and in the assay with RXF 393 renal was > 100 µM each time. Besides, the TGI in the assay on UACC-257 melanoma, in the assay on NCI-H522 lung and in the assay with OVCAR-8 ovarian was > 100 µM each time.
As for `COc1ccc(/C=C/c2cc(OC)c(O[Si](C)(C)C(C)(C)C)c(OC)c2)cc1`, the TGI in the assay with A549 NSCLC, in the assay on NCI-H460 lung, in the assay with U251 CNS, with CAKI-1 renal, in the assay with A498 renal and with COLO 205 colon was > 100 µM in each case. For the same compound, the TGI in the assay on UACC-257 melanoma, in the assay on NCI-H522 lung and in the assay with OVCAR-8 ovarian was > 100 µM each time.
Regarding `C/C(=N\NC(=O)CC(=O)Nc1ccc(C)cc1)c1cc2ccccc2oc1=O`, the TGI with A549 NSCLC, in the assay with NCI-H460 lung, in the assay on U251 CNS, with COLO 205 colon, in the assay with RXF 393 renal and in the assay on UACC-257 melanoma was > 100 µM in each case. Besides, the TGI with NCI-H522 lung and in the assay with OVCAR-8 ovarian was > 100 µM in each case.
Regarding `COc1ccc(/C=C2\N=C(c3ccccc3)OC2=O)c(OCc2ccccc2)c1`, the TGI was > 100 µM with A549 NSCLC; > 100 µM in the assay with NCI-H460 lung; > 100 µM in the assay with CAKI-1 renal; 68.5 µM in the assay on A498 renal; > 100 µM with COLO 205 colon; 67.2 µM with NCI-H522 lung. In the assay on OVCAR-8 ovarian, this compound had a TGI of 72 µM.
As for `NC(=S)N/N=C(/CC(=O)c1ccc([N+](=O)[O-])cc1)C(=O)Nc1ncc([N+](=O)[O-])s1`, the TGI in the assay with A549 NSCLC, with NCI-H460 lung, in the assay on U251 CNS, in the assay on COLO 205 colon, in the assay with RXF 393 renal and in the assay with UACC-257 melanoma was > 100 µM each time. For the same compound, the TGI with OVCAR-8 ovarian is > 100 µM.
`CN(C)CCNC(=O)c1cccc2nc3ccc4ccccc4c3nc12`: the TGI in the assay on A549 NSCLC is 0.253 µM; with NCI-H460 lung, 0.135 µM; in the assay on U251 CNS, 0.665 µM; in the assay on CAKI-1 renal, 0.541 µM; with A498 renal it was 0.241 µM; in the assay with COLO 205 colon, 0.206 µM. Further, the total growth inhibition concentration (TGI) with RXF 393 renal was found to be 0.198 µM; in the assay on UACC-257 melanoma, 0.531 µM; in the assay with OVCAR-8 ovarian, 0.284 µM.
Regarding `C/C(=N/O)C1CC=C(S(=O)(=O)c2ccccc2)C1` (configuration not stated), the TGI in the assay with A549 NSCLC, with NCI-H460 lung, with U251 CNS, in the assay on CAKI-1 renal, in the assay with COLO 205 colon and in the assay on RXF 393 renal was > 100 µM each time. Moreover, the TGI with UACC-257 melanoma, in the assay with NCI-H522 lung and in the assay with OVCAR-8 ovarian was > 100 µM each time.
As to `CC(=O)CC(=O)CCCC(=O)Nc1ccc(Cl)cc1C`, the TGI in the assay on A549 NSCLC, in the assay with NCI-H460 lung, in the assay with U251 CNS, in the assay on CAKI-1 renal, in the assay with A498 renal and in the assay on COLO 205 colon was > 100 µM throughout. In addition, the total growth inhibition concentration (TGI) in the assay with UACC-257 melanoma, in the assay with NCI-H522 lung and with OVCAR-8 ovarian was > 100 µM each time.
For the compound `CCc1cccc(C(C)CC)c1N=C(NC(=O)c1ccccc1C(=O)NC(=Nc1c(CC)cccc1C(C)CC)SC)SC` (configuration not stated), the TGI in the assay on A549 NSCLC was > 100 µM; in the assay on NCI-H460 lung it was > 100 µM; with U251 CNS, 79.5 µM; in the assay on CAKI-1 renal it was > 100 µM; in the assay with COLO 205 colon it was > 100 µM; in the assay on RXF 393 renal it was > 100 µM. Besides, the TGI in the assay on UACC-257 melanoma was > 100 µM; with NCI-H522 lung, 64.4 µM; with OVCAR-8 ovarian it was > 100 µM.
Take `CCC(=O)C1=C(OC(C)=O)C2Cc3c(n(C)c4ccccc34)C(C1)N2C` (configuration not stated): the TGI in the assay with A549 NSCLC, in the assay on NCI-H460 lung, in the assay with U251 CNS, in the assay with CAKI-1 renal, in the assay with A498 renal and with COLO 205 colon was > 100 µM each time. For the same compound, the TGI in the assay on UACC-257 melanoma was > 100 µM; with NCI-H522 lung, 30 µM; with OVCAR-8 ovarian, 41.6 µM.
Turning to `O=[N+]([O-])c1cccc(C2SCc3nc4ccccc4n32)c1` (configuration not stated), the TGI in the assay on A549 NSCLC, in the assay on NCI-H460 lung, in the assay with U251 CNS, in the assay on CAKI-1 renal, in the assay with A498 renal and with COLO 205 colon was > 100 µM in each case. In addition, the TGI in the assay on RXF 393 renal, in the assay with UACC-257 melanoma and in the assay on OVCAR-8 ovarian was > 100 µM in each case.
As to `C/C(CN1C(=O)c2ccccc2C1=O)=N\NS(=O)(=O)c1ccccc1`, the TGI with A549 NSCLC, in the assay with NCI-H460 lung, in the assay on U251 CNS, in the assay with CAKI-1 renal, with A498 renal and in the assay with COLO 205 colon was > 100 µM each time. Further, the total growth inhibition concentration (TGI) with UACC-257 melanoma, with NCI-H522 lung and in the assay with OVCAR-8 ovarian was > 100 µM throughout.
